Assay results published in patent US5232849A, “Bacteriocin from lactococcus lactis subspecies lactis” (Quest International Flavors & Food Ingredients Company …, priority 1992, dated 1993).

Legend:
Experiment in all cases: Spectrum of antimicrobial activity
Parameters in all cases: key: + = inhibition; - = no inhibition
Details in all cases: pure, titer 3200 AU/ml
L. plantarum 346 = format: cell-based, Lactobacillus plantarum
Protocol: (§1) Bacteriocin assay. To ascertain if the antibacterial substance is secreted into liquid medium, the cultures were grown in MRS broth and cell free filtrates of turbid cultures were made and the filtrate posted on a seeded semisolid agar overlay of the indicator. Antibacterial activity was quantitated by assigning arbitrary units. One arbitrary unit (AU) was defined as 5 μl of the culture supernatant yielding a definite, clear zone of inhibition on the indicator lawn. The titer was expressed as the reciprocal of the highest dilution of supernatant showing inhibition.

L. plantarum 355 = format: cell-based, Lactobacillus plantarum
Protocol: as §1

L. casei 326 = format: cell-based, Lactobacillus casei
Protocol: as §1

L. casei 842 = format: cell-based, Lactobacillus casei
Protocol: as §1

L. brevis 329 = format: cell-based, Lactobacillus brevis
Protocol: as §1

L. brevis 888 = format: cell-based, Lactobacillus brevis
Protocol: as §1

L. fermentum 342 = format: cell-based, Lactobacillus fermentum
Protocol: as §1

L. fermentum 701 = format: cell-based, Lactobacillus fermentum
Protocol: as §1

P. acidilactici A = format: cell-based, Pediococcus acidilactici
Protocol: as §1

P. acidilactici B = format: cell-based, Pediococcus acidilactici
Protocol: as §1

P. acidilactici C = format: cell-based, Pediococcus acidilactici
Protocol: as §1

P. acidilactici D = format: cell-based, Pediococcus acidilactici
Protocol: as §1

P. acidilactici PAC 1.0 = format: cell-based, Pediococcus acidilactici
Protocol: as §1

P. pentosaceus FBB63C = format: cell-based, Pediococcus pentosaceus
Protocol: as §1

L. monocytogenes 04 = format: cell-based
Protocol: as §1

L. monocytogenes 08 = format: cell-based
Protocol: as §1

L. monocytogenes 36 = format: cell-based
Protocol: as §1

L. monocytogenes 38 = format: cell-based
Protocol: as §1

L. monocytogenes 59 = format: cell-based
Protocol: as §1

L. monocytogenes 62 = format: cell-based
Protocol: as §1

L. monocytogenes 69 = format: cell-based
Protocol: as §1

S. mutans GS5 = format: cell-based, Streptococcus mutans
Protocol: as §1

S. mutans V262 = format: cell-based, Streptococcus mutans
Protocol: as §1

B. subtilis RM125 = format: cell-based, Bacillus subtilis
Protocol: as §1

B. subtilis amylase^+ = format: cell-based, Bacillus subtilis
Protocol: as §1

L. lactis LLA 1.0 = format: cell-based, Lactococcus lactis
Protocol: as §1

L. lactis LLA 2.0 = format: cell-based, Lactococcus lactis
Protocol: as §1

## nisin [Nisin Pure]
L. plantarum 346
  inhibition of L. plantarum 346: +
L. plantarum 355
  inhibition of L. plantarum 355: +
L. casei 326
  inhibition of L. casei 326: +
L. casei 842
  inhibition of L. casei 842: +
L. brevis 329
  inhibition of L. brevis 329: +
L. brevis 888
  inhibition of L. brevis 888: +
L. fermentum 342
  inhibition of L. fermentum 342: +
L. fermentum 701
  inhibition of L. fermentum 701: +
P. acidilactici A
  inhibition of P. acidilactici A: +
P. acidilactici B
  inhibition of P. acidilactici B: +
P. acidilactici C
  inhibition of P. acidilactici C: +
P. acidilactici D
  inhibition of P. acidilactici D: +
P. acidilactici PAC 1.0
  inhibition of P. acidilactici PAC 1.0: +
P. pentosaceus FBB63C
  inhibition of P. pentosaceus FBB63C: +
L. monocytogenes 04
  inhibition of L. monocytogenes 04: +
L. monocytogenes 08
  inhibition of L. monocytogenes 08: +
L. monocytogenes 36
  inhibition of L. monocytogenes 36: +
L. monocytogenes 38
  inhibition of L. monocytogenes 38: +
L. monocytogenes 59
  inhibition of L. monocytogenes 59: +
L. monocytogenes 62
  inhibition of L. monocytogenes 62: +
L. monocytogenes 69
  inhibition of L. monocytogenes 69: +
S. mutans GS5
  inhibition of S. mutans GS5: +
S. mutans V262
  inhibition of S. mutans V262: -
B. subtilis RM125
  inhibition of B. subtilis RM125: +
B. subtilis amylase^+
  inhibition of B. subtilis amylase^+: +
L. lactis LLA 1.0
  inhibition of L. lactis LLA 1.0: +
L. lactis LLA 2.0
  inhibition of L. lactis LLA 2.0: +
